This note sets out measurements from PubChem BioAssay (NCI).

What is called GI50 is the concentration giving 50% growth inhibition. For orientation: TGI means the concentration giving total growth inhibition. Low readings indicate greater sensitivity of the cells, high ones lower sensitivity of the cells.

Test systems include HCC-2998 colon; HCT-15 colon; HOP-62 NSCLC; HS 578T breast; SF-268 CNS; SK-MEL-5 melanoma; SR leukemia.
Holding throughout (test): DTP human tumour cell line panel, 48 h

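Five compound concentrations were applied to cells in 96-well plates for 48 hours; endpoints were derived by simple linear interpolation of the resulting dose-response curve. GI50: concentration for 50% inhibition of growth. At the TGI there is no net growth.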

In the case of `CC1=C(SCCC(=O)OC(C[Se]C2=C(C)C(=O)c3ccccc3C2=O)C(=O)NCCCCCC(=O)OCc2ccccc2)C(=O)c2ccccc2C1=O` (stereo not drawn), the GI50 in the test with HCC-2998 colon was 6.52 µM; with HCT-15 colon it was 6.53 µM; in the test on HOP-62 NSCLC, 3.82 µM; with HS 578T breast, 7.6 µM; with SF-268 CNS, 7.33 µM; in the test on SK-MEL-5 melanoma it was 3.81 µM. Moreover, the TGI with HCC-2998 colon was 18.5 µM; in the test on HCT-15 colon it was 21.3 µM; with HOP-62 NSCLC, 14.4 µM; in the test on HS 578T breast it was over 100 µM; with SF-268 CNS, 19.9 µM; with SK-MEL-5 melanoma it was 14.9 µM.

Regarding `O=C(CCCN1CCC(O)(c2ccc(Cl)cc2)CC1)c1ccc(F)cc1`, the TGI in the test with HCT-15 colon is 37.5 µM; in the test on HOP-62 NSCLC, over 100 µM; in the test on HS 578T breast, 65.9 µM; in the test with SF-268 CNS, over 100 µM; with SK-MEL-5 melanoma, 29.7 µM; in the test on SR leukemia, over 100 µM.

As to `COc1ccc(/C(COc2ccc3oc(-c4ccccc4)cc(=O)c3c2)=N\O)cc1`, the GI50 is 0.145 µM with HCC-2998 colon; 0.0264 µM with HCT-15 colon; 1.72 µM with HOP-62 NSCLC; 0.162 µM in the test on SF-268 CNS; 0.93 µM in the test on SK-MEL-5 melanoma. Besides, the TGI in the test with HCC-2998 colon is 0.983 µM; in the test with HOP-62 NSCLC, over 50 µM; in the test on SF-268 CNS, 1.36 µM; in the test on SK-MEL-5 melanoma it was 7.98 µM; in the test on SR leukemia it was over 50 µM.

In the case of `Cc1csc2[n+]1-c1ccccc1N(C(=O)Nc1ccccc1)C(C)C2` (stereo not drawn), the GI50 in the test with HCT-15 colon was over 100 µM; with HOP-62 NSCLC, 41.9 µM; in the test with HS 578T breast, over 100 µM; in the test on SF-268 CNS it was over 100 µM; in the test with SK-MEL-5 melanoma it was 42.6 µM. Besides, the TGI in the test with HCT-15 colon, in the test with HOP-62 NSCLC, in the test on HS 578T breast, in the test on SF-268 CNS and in the test with SK-MEL-5 melanoma was over 100 µM throughout.

Turning to `CC1=C(c2ccccc2)C(O)(c2ccccc2)C(C)C1=O` (stereo not drawn), the GI50 is 31.4 µM in the test with HCT-15 colon; 11.6 µM in the test with HOP-62 NSCLC; 27.4 µM in the test on SF-268 CNS; 14 µM in the test on SK-MEL-5 melanoma; 3.75 µM with SR leukemia. Also, the TGI with HCT-15 colon, with HOP-62 NSCLC, in the test with SF-268 CNS, with SK-MEL-5 melanoma and in the test with SR leukemia was over 100 µM in each case.

As to `COc1ccc2c(c1OC)CO[C@@H]2[C@H]1c2c(cc3c(c2OC)OCO3)CCN1S(=O)(=O)c1cn(C)cn1`, the GI50 in the test with HCC-2998 colon is 3.23 µM; in the test on HCT-15 colon it was 0.722 µM; in the test on HOP-62 NSCLC, 1.88 µM; with SF-268 CNS, 5.64 µM; in the test with SK-MEL-5 melanoma it was 0.444 µM; in the test on SR leukemia, 0.902 µM. For the same molecule, the TGI is over 100 µM in the test on HCC-2998 colon; over 100 µM in the test with HCT-15 colon; over 100 µM in the test on HOP-62 NSCLC; over 100 µM in the test on SF-268 CNS; 6.24 µM in the test on SK-MEL-5 melanoma; over 100 µM in the test on SR leukemia.

Consider `COc1cc(/C=C/C(=O)/C=C/c2ccc(-n3ccnc3C)cc2)ccc1O`, for which the GI50 with HCC-2998 colon was 1.75 µM; with HCT-15 colon, 2.6 µM; with HOP-62 NSCLC, 3.18 µM; in the test with SF-268 CNS, 2.9 µM; in the test on SK-MEL-5 melanoma it was 3.25 µM; in the test with SR leukemia, 2.55 µM. For the same molecule, the TGI is 3.21 µM in the test with HCC-2998 colon; 8.47 µM with HCT-15 colon; 10.5 µM in the test with HOP-62 NSCLC; 12.1 µM in the test on SF-268 CNS; 11.9 µM with SK-MEL-5 melanoma; over 100 µM in the test on SR leukemia.

For the molecule `COC(=O)c1ccc(CN2C(=O)C(Cl)=C(Nc3cccc(Cl)c3C)C2=O)cc1`, the GI50 in the test on HCC-2998 colon was 32.5 µM; in the test on HCT-15 colon, 28.4 µM; in the test with HOP-62 NSCLC, 14.2 µM; with HS 578T breast, 21 µM; with SF-268 CNS, 45.3 µM; with SK-MEL-5 melanoma, 1.08 µM. The TGI in the test with HCC-2998 colon is 67.5 µM; with HCT-15 colon it was 78.9 µM; with HOP-62 NSCLC it was over 100 µM; in the test with HS 578T breast, 95.5 µM; in the test on SF-268 CNS it was over 100 µM; with SK-MEL-5 melanoma, 3.94 µM.

As to `COc1ccc2c(c1)c(-c1nc(-c3c[nH]c4ccncc34)cs1)cn2C`, the GI50 in the test on HCC-2998 colon is 1.85 µM; with HCT-15 colon, 1.25 µM; with HOP-62 NSCLC, 1.82 µM; with HS 578T breast, 2.03 µM; in the test on SF-268 CNS it was 1.77 µM; in the test on SK-MEL-5 melanoma it was 1.65 µM. The TGI with HCC-2998 colon came to 3.35 µM; in the test on HCT-15 colon, 2.58 µM; in the test with HOP-62 NSCLC, 3.45 µM; in the test on HS 578T breast, 4.02 µM; in the test on SF-268 CNS, 3.37 µM; in the test with SK-MEL-5 melanoma, 3.02 µM.

For `CCOC(=O)c1cc2c(cc1Cl)SC(=Nc1ccccc1)N(S(=O)(=O)c1ccc(Cl)cc1)S2(=O)=O`, the GI50 in the test on HCC-2998 colon is 13.5 µM; in the test on HCT-15 colon, 6.52 µM; with HOP-62 NSCLC, 16 µM; in the test with HS 578T breast, 17 µM; with SF-268 CNS, 12.1 µM; in the test with SK-MEL-5 melanoma, 9.5 µM. The TGI in the test with HCC-2998 colon came to 27.9 µM; with HCT-15 colon, 21.9 µM; in the test with HOP-62 NSCLC, 32.6 µM; in the test on HS 578T breast it was 52.9 µM; with SF-268 CNS, 32 µM; in the test with SK-MEL-5 melanoma it was 21.6 µM.
